Assay results as given in patent publication US8658363B2, “Cell, method, and assay kit for measuring level of aryl hydrocarbon receptor transcriptional activation” (priority 2009, dated 2014).

Molecular target: T1, Ah receptor (Rattus norvegicus, UniProt P41738)
T1 construct: pcDNA4/V5-His B was linked with the coding region of the rat Ah receptor gene; expressed in transfected cells
T1 sequence (P41738 10-853): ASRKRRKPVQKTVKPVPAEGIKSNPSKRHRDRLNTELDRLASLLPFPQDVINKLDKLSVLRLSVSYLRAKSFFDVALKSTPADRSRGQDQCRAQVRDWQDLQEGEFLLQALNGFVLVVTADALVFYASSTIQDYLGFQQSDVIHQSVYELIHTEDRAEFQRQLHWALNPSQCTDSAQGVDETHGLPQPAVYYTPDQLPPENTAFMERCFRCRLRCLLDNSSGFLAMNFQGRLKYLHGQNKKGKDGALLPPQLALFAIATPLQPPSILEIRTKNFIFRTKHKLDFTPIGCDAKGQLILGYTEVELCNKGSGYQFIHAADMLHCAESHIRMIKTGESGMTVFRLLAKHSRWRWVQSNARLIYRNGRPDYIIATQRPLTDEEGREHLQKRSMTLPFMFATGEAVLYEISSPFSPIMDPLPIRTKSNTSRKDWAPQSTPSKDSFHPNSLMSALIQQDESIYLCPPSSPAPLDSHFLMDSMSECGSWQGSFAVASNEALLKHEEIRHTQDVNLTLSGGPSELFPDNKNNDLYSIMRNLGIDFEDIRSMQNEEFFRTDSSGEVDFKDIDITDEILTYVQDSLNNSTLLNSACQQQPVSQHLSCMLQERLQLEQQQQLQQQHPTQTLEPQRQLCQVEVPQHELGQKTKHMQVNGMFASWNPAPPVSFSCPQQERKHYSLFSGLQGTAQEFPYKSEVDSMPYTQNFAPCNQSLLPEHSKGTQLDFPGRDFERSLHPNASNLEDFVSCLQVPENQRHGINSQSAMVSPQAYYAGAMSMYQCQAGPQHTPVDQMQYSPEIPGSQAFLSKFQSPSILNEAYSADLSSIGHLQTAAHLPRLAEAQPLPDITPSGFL
Experiment: Ah receptor transcriptional activation, luciferase reporter in recombinant N2a-SY1 cells
Type: cell-based
Details: for N2a-SY1 (magnification of activation) [signal-to-noise ratio] / N2a-SY1 (LUC) compensated value: luciferase luminescence RLU divided by absorbance of β-galactosidase: 24 hours, N2a-SY1 cells
Procedure: The recombinant cells (N2a-SY1) produced in Example 4 were seeded on a 24-well plate with about 80,000 cells per well and then cultured in a […] medium of 10% serum for several hours to overnight.
Next, the medium of the recombinant cell cultured in the above manner was aspirated to remove it, and DF 1:1 mediums of 10% serum which contained a 2,3,7,8-TCDD in concentrations of 0, 0.1, 1, 10, 100 and 1000 pg/mL, respectively were each dispensed in each well with 1 mL per well to culture cells. The culturing of cells was continued, the medium was removed after 24 hours and the cells were washed once with PBS 1 mL per well. Then, 200 μL per well of a PicaGene Cell Culture Lysis Reagent Luβ (manufactured by Toyo B-Net Co., Ltd.) diluted five times was added to each well, which was then allowed to stand at room temperature for 10 minutes or more to dissolve, thereby obtaining a cell extract. The obtained cell extract was frozen-stored in a freezing chamber, this frozen-stored plate was taken out of the freezing chamber, and the cell extract was fused at room temperature. 10 μL of the fused cell extract was transferred to a black 96-well plate. Then, 100 μL per well of a PicaGene (trademark) LT210 luminescence substrate solution was dispensed in each well of the plate and mixed and then, the plate was set to a Mithras LB940 Microplate Reader (manufactured by Berthold Japan K.K.) to measure a luminescence amount continuously. Separately, 10 μL of the above cell extract was transferred to a transparent 96-well plate. 150 μL of a β-galactosidase substrate solution (ONPG substrate solution) was added to each well of the plate, which was incubated at room temperature for 5 minutes, and then, 50 μL of a reaction stop solution (aqueous […] sodium carbonate solution) was added to each well. Then, the plate was set to a micro-plate reader to measure absorbance of each well at 405 nm. Using a standard curve, the absorbance was converted into the amount of β-galactosidase (ng) in the protein extract. The results are shown by a bar graph in FIG. 4, and also in Table 1 showing each value (in the table, each value is a compensated value calculated by dividing the luminescence relative light units (RLU) of luciferase by the absorbance of β-galactosidase and bB/A means the magnification of activation [signal-to-noise ratio]).
The stable recombinant cells (N2a-SY1) produced in Example 4 were seeded on a 24-well plate with about 80,000 cells per well and cultured in a DF 1:1 medium of 10% serum for several hours to overnight.
Next, the medium of the recombinant cell cultured in the above manner was aspirated to remove it, and DF 1:1 mediums of 10% serum which contained PCB126 at concentrations of 0, 0.2, 2, 20, 200, 2000, and 20000 pg/mL respectively were dispensed in each well with 1 mL per well to culture cells. The culturing of cells was continued, the medium was removed after 24 hours and the cells were washed once with PBS 1 mL per well. Then, 200 μL per well of a PicaGene Cell Culture Lysis Reagent Luβ (manufactured by Toyo B-Net Co., Ltd.) diluted five times was added to each well, which was then allowed to stand at room temperature for 10 minutes or more to dissolve, thereby obtaining a cell extract. The obtained cell extract was frozen-stored in a freezing chamber, this frozen-stored plate was taken out of the freezing chamber, and the cell extract was fused at room temperature. 10 μL of the fused cell extract was transferred to a black 96-well plate. Then, 100 μL per well of a PicaGene (trademark) LT210 luminescence substrate solution was dispensed in each well of the plate and mixed and then, the plate was set to a Mithras LB940 Microplate Reader (manufactured by Berthold Japan K.K.) to measure a luminescence amount continuously. Separately, 10 μL of the above cell extract was transferred to a transparent 96-well plate. […]

Clc1cc2c(cc1Cl)Oc1cc(Cl)c(Cl)cc1O2 [2,3,7,8-TCDD]
N2a-SY1 (magnification of activation) [signal-to-noise ratio] (2,3,7,8-TCDD 0.01 pg/ml vs 0 pg/ml): 1. | N2a-SY1 (LUC) compensated value: luciferase luminescence RLU divided by absorbance of β-galactosidase (2,3,7,8-TCDD 0.01 pg/ml): 1187.8 | N2a-SY1 (magnification of activation) [signal-to-noise ratio] (2,3,7,8-TCDD 0.1 pg/ml vs 0 pg/ml): 1.24 | N2a-SY1 (LUC) compensated value: luciferase luminescence RLU divided by absorbance of β-galactosidase (2,3,7,8-TCDD 0.1 pg/ml): 1451.5 | N2a-SY1 (magnification of activation) [signal-to-noise ratio] (2,3,7,8-TCDD 1 pg/ml vs 0 pg/ml): 1.34 | N2a-SY1 (LUC) compensated value: luciferase luminescence RLU divided by absorbance of β-galactosidase (2,3,7,8-TCDD 1 pg/ml): 1577.6 | N2a-SY1 (magnification of activation) [signal-to-noise ratio] (2,3,7,8-TCDD 10 pg/ml vs 0 pg/ml): 3.43 | N2a-SY1 (LUC) compensated value: luciferase luminescence RLU divided by absorbance of β-galactosidase (2,3,7,8-TCDD 10 pg/ml): 4029.7 | N2a-SY1 (magnification of activation) [signal-to-noise ratio] (2,3,7,8-TCDD 100 pg/ml vs 0 pg/ml): 4.88 | N2a-SY1 (LUC) compensated value: luciferase luminescence RLU divided by absorbance of β-galactosidase (2,3,7,8-TCDD 100 pg/ml): 5718.5 | N2a-SY1 (magnification of activation) [signal-to-noise ratio] (2,3,7,8-TCDD 1000 pg/ml vs 0 pg/ml): 5.22 | N2a-SY1 (LUC) compensated value: luciferase luminescence RLU divided by absorbance of β-galactosidase (2,3,7,8-TCDD 1000 pg/ml): 6132.5 | concentration in a sample that may be detected (Ah receptor transcriptional activation) (recombinant cell of the embodiment): 0.1 pg/mL

Clc1ccc(-c2cc(Cl)c(Cl)c(Cl)c2)cc1Cl [PCB126]
N2a-SY1 (magnification of activation) [signal-to-noise ratio] (PCB126 0.2 pg/ml vs 0 pg/ml): 0.91 | N2a-SY1 (LUC) compensated value: luciferase luminescence RLU divided by absorbance of β-galactosidase (PCB126 0.2 pg/ml): 1882.6 | N2a-SY1 (magnification of activation) [signal-to-noise ratio] (PCB126 2 pg/ml vs 0 pg/ml): 1.15 | N2a-SY1 (LUC) compensated value: luciferase luminescence RLU divided by absorbance of β-galactosidase (PCB126 2 pg/ml): 2388 | N2a-SY1 (magnification of activation) [signal-to-noise ratio] (PCB126 20 pg/ml vs 0 pg/ml): 1.92 | N2a-SY1 (LUC) compensated value: luciferase luminescence RLU divided by absorbance of β-galactosidase (PCB126 20 pg/ml): 3991 | N2a-SY1 (magnification of activation) [signal-to-noise ratio] (PCB126 200 pg/ml vs 0 pg/ml): 2.74 | N2a-SY1 (LUC) compensated value: luciferase luminescence RLU divided by absorbance of β-galactosidase (PCB126 200 pg/ml): 5685.8 | N2a-SY1 (magnification of activation) [signal-to-noise ratio] (PCB126 2000 pg/ml vs 0 pg/ml): 3.08 | N2a-SY1 (LUC) compensated value: luciferase luminescence RLU divided by absorbance of β-galactosidase (PCB126 2000 pg/ml): 6401.6 | N2a-SY1 (magnification of activation) [signal-to-noise ratio] (PCB126 20000 pg/ml vs 0 pg/ml): 3.02 | N2a-SY1 (LUC) compensated value: luciferase luminescence RLU divided by absorbance of β-galactosidase (PCB126 20000 pg/ml): 6264.8 | N2a-SY1 (magnification of activation) [signal-to-noise ratio] (PCB126 200000 pg/ml vs 0 pg/ml): 3.02 | N2a-SY1 (LUC) compensated value: luciferase luminescence RLU divided by absorbance of β-galactosidase (PCB126 200000 pg/ml): 6268.9
